Experimental data taken from US12258344B2, “Azaaromatic amide derivatives for the treatment of cancer” (SHENZHEN FORWARD PHARMACEUTICALS CO., LTD., priority 2019, dated 2025).

Assays:
Type in all cases: cell-based
BaF3 (EGFR/S768I) = molecular target: T1, BaF3 (EGFR/S768I) (Homo sapiens, UniProt P00533, cells depend on it, form not given); experiment: Test 19: EGFR/S768I mutant cell line proliferation test; conditions: EGFR S768I and EGFR L861Q (tests 19-20), in words
T1 construct: other: EGFR S768I and EGFR L8
Description: Test 19: EGFR/S768I Mutant Cell Line Proliferation Test
(§1) The number of viable cells in the culture was measured according to the protocol described in Promega's Cell Titer-Glo Luminescent cell Viability Assay (Promega catalog number #G7570). 90 μl of cells (3,000 cells/well) were cultured in growth medium in a Corning black transparent bottom 96-well plate, and cultured in a 5% CO2 humidified incubator at 37° C. overnight. The compound serially diluted in 100% DMSO was added to the cells using a pipette, and the cells were incubated for another 72 hours. 100 μl of the mixed Cell Titer-Glo reagent was added to the cells in the 96-well culture plate to lyse the cells and mix gently. Subsequently, the […] was detected on the Envision microplate detector to obtain the data of each compound. Finally, the data was input into a suitable software package (such as Prism) for curve fitting analysis.

BaF3 (EGFR-N771insH) = BaF3 (EGFR-N771insH) (Homo sapiens, UniProt P00533, INS771H, cells depend on it); experiment: Test 5: BaF3 (EGFR-N771insH) cell proliferation test; conditions: 72 hours, Cell Titer-Glo, read-out: Test 5 - IC50
Description: Test 5: BaF3 (EGFR-N771insH) Cell Proliferation Test
BaF3 (EGFR-N771insH) was cultured in RPMI1640 medium containing 10% fetal bovine serum and 2 mM glutamine. The cells were grown at 37° C. in a humidified incubator with 5% CO2.
as §1

BaF3 (HER2-G776insVC) = BaF3 (HER2-G776insVC) (Homo sapiens, UniProt P04626, cells depend on it, form not given); experiment: Test 11: BaF3 (HER2-G776insVC) cell proliferation test; conditions: 72 hours, Cell Titer-Glo, read-out: Test 11 - IC50
Sequence of BaF3 (HER2-G776insVC) (P04626 with tags, fused parts or gaps DELINS776-776VC): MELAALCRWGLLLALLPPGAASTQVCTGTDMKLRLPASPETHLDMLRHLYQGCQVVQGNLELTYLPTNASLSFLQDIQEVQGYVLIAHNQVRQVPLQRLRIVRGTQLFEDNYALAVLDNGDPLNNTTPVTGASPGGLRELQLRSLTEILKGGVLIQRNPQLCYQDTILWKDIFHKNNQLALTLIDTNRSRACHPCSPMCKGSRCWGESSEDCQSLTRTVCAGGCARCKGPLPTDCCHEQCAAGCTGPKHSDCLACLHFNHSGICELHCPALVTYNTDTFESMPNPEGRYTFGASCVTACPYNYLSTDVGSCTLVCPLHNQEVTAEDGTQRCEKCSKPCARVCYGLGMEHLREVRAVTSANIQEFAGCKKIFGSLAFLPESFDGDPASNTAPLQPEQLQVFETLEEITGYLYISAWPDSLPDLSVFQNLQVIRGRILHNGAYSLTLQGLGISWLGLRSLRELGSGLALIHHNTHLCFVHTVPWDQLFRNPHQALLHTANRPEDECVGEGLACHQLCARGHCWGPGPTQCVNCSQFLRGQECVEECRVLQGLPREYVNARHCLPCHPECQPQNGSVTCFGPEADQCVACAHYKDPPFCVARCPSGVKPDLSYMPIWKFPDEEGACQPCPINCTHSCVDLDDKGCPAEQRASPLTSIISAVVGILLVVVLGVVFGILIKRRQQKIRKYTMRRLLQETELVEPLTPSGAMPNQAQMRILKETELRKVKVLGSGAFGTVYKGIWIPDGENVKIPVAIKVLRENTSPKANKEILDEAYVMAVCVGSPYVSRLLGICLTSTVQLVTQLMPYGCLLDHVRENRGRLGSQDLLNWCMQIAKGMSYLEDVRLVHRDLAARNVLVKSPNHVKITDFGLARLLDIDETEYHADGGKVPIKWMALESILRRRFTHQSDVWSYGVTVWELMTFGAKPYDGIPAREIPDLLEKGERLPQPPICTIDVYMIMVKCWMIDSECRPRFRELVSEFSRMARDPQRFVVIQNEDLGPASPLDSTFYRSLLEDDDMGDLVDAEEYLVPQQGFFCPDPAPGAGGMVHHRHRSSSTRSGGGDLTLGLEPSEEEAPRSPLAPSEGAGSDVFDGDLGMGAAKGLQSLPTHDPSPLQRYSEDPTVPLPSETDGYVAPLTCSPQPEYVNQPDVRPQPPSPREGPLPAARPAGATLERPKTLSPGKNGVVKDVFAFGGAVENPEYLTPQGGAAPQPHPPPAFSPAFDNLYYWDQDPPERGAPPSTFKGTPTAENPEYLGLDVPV
Description: Test 11: BaF3 (HER2-G776insVC) Cell Proliferation Test
The engineered cell line BaF3 (HER2-G776insVC) was constructed by the inventor himself (for the method of cell line construction, see Jingrui Jiang et al., Cancer Res. 2005 Oct. 1; 65 (19): 8964-74; Jacqulyne P. Robichaux et al., Nat Med. 2018 May; 24 (5): 638-646). BaF3 (HER2-G776insVC) was cultured in RPMI1640 medium containing 10% fetal bovine serum and 2 mM glutamine. The cells were grown at 37° C. in a humidified incubator with 5% CO2.
as §1

BaF3 (EGFR-A763insFQEA) = BaF3 (EGFR-A763insFQEA) (Homo sapiens, UniProt P00533, INS763FQEA, cells depend on it); experiment: Test 3: BaF3 (EGFR-A763insFQEA) cell proliferation test; conditions: 72 hours, Cell Titer-Glo, read-out: Test 3 - IC50
Description: Test 3: BaF3 (EGFR-A763insFOEA) Cell Proliferation Test
BaF3 (EGFR-A763insFQEA) was cultured in RPMI1640 medium containing 10% fetal bovine serum and 2 mM glutamine. The cells were grown at 37° C. in a humidified incubator with 5% CO2.
as §1

BaF3 (EGFR-D770insSVD) = BaF3 (EGFR-D770insSVD) (Homo sapiens, UniProt P00533, DUP768-770, cells depend on it); experiment: Test 2: BaF3 (EGFR-D770insSVD) cell proliferation test; conditions: 72 hours, Cell Titer-Glo, read-out: Test 2 - IC50
Description: Test 2: BaF3 (EGFR-D770insSVD) Cell Proliferation Test
BaF3 (EGFR-D770insSVD) was cultured in RPMI1640 medium containing 10% fetal bovine serum and 2 mM glutamine. The cells were grown at 37° C. in a humidified incubator with 5% CO2.
as §1

BaF3 (EGFR-S768I) = BaF3 (EGFR-S768I) (Homo sapiens, UniProt P00533, S768I, cells depend on it); experiment: Test 7: BaF3 (EGFR-S768I) cell proliferation test; conditions: 72 hours, Cell Titer-Glo, read-out: Test 7 - IC50
Description: Test 7: BaF3 (EGFR-S768I) Cell Proliferation Test
BaF3 (EGFR-S768I) was cultured in RPMI1640 medium containing 10% fetal bovine serum and 2 mM glutamine. The cells were grown at 37° C. in a humidified incubator with 5% CO2.
as §1

BaF3 (EGFR-V769insASV) = BaF3 (EGFR-V769insASV) (Homo sapiens, UniProt P00533, DUP767-769, cells depend on it); experiment: Test 4: BaF3 (EGFR-V769insASV) cell proliferation test; conditions: 72 hours, Cell Titer-Glo, read-out: Test 4 - IC50
Description: Test 4: BaF3 (EGFR-V769insASV) Cell Proliferation Test
BaF3 (EGFR-V769insASV) was cultured in RPMI1640 medium containing 10% fetal bovine serum and 2 mM glutamine. The cells were grown at 37° C. in a humidified incubator with 5% CO2.
as §1

BaF3 (HER2-A775insYVMA) = BaF3 (HER2-A775insYVMA) (Homo sapiens, UniProt P04626, DUP772-775, cells depend on it); experiment: Test 9: BaF3 (HER2-A775insYVMA) cell proliferation test; conditions: 72 hours, Cell Titer-Glo, read-out: Test 9 - IC50
Sequence of BaF3 (HER2-A775insYVMA) (P04626 with tags, fused parts or gaps DUP772-775): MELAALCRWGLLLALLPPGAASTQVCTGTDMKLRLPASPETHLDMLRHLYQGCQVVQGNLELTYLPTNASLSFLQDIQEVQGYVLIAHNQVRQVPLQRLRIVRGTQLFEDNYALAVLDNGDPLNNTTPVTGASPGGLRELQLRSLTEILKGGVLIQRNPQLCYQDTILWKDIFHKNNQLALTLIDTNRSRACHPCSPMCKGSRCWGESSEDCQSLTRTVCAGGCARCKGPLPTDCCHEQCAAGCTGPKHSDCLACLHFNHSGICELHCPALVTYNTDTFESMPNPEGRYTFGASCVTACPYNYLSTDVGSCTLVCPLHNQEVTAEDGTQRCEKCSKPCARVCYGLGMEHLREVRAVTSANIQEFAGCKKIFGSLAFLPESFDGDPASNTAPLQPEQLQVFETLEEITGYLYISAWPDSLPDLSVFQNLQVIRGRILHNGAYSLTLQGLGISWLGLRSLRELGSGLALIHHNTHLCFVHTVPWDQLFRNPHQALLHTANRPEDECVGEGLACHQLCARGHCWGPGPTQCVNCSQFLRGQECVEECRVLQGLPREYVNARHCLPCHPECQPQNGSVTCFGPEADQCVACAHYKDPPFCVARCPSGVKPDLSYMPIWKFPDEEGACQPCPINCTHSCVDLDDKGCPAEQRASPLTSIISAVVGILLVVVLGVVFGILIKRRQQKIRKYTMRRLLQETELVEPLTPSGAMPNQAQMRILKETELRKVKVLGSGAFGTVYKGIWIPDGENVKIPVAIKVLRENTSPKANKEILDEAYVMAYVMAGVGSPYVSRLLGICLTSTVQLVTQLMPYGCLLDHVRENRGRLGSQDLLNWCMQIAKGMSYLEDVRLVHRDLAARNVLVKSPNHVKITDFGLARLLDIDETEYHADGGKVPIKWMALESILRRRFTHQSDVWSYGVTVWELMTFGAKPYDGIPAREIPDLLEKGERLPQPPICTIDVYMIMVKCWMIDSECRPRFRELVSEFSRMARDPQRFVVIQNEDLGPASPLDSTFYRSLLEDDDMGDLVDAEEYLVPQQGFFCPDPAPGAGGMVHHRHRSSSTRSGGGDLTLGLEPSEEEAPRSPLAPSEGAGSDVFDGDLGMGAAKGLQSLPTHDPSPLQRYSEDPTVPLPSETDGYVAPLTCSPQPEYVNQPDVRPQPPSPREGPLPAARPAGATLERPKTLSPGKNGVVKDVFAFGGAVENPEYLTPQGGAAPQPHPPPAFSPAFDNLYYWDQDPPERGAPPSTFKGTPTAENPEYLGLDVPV
Description: Test 9: BaF3 (HER2-A775insYVMA) Cell Proliferation Test
BaF3 (HER2-A775insYVMA) was cultured in RPMI1640 medium containing 10% fetal bovine serum and 2 mM glutamine. The cells were grown at 37° C. in a humidified incubator with 5% CO2.
as §1

BaF3 (HER2-P780insGSP) = BaF3 (HER2-P780insGSP) (Homo sapiens, UniProt P04626, DUP778-780, cells depend on it); experiment: Test 10: BaF3 (HER2-P780insGSP) cell proliferation test; conditions: 72 hours, Cell Titer-Glo, read-out: Test 10 - IC50
Sequence of BaF3 (HER2-P780insGSP) (P04626 with tags, fused parts or gaps DUP778-780): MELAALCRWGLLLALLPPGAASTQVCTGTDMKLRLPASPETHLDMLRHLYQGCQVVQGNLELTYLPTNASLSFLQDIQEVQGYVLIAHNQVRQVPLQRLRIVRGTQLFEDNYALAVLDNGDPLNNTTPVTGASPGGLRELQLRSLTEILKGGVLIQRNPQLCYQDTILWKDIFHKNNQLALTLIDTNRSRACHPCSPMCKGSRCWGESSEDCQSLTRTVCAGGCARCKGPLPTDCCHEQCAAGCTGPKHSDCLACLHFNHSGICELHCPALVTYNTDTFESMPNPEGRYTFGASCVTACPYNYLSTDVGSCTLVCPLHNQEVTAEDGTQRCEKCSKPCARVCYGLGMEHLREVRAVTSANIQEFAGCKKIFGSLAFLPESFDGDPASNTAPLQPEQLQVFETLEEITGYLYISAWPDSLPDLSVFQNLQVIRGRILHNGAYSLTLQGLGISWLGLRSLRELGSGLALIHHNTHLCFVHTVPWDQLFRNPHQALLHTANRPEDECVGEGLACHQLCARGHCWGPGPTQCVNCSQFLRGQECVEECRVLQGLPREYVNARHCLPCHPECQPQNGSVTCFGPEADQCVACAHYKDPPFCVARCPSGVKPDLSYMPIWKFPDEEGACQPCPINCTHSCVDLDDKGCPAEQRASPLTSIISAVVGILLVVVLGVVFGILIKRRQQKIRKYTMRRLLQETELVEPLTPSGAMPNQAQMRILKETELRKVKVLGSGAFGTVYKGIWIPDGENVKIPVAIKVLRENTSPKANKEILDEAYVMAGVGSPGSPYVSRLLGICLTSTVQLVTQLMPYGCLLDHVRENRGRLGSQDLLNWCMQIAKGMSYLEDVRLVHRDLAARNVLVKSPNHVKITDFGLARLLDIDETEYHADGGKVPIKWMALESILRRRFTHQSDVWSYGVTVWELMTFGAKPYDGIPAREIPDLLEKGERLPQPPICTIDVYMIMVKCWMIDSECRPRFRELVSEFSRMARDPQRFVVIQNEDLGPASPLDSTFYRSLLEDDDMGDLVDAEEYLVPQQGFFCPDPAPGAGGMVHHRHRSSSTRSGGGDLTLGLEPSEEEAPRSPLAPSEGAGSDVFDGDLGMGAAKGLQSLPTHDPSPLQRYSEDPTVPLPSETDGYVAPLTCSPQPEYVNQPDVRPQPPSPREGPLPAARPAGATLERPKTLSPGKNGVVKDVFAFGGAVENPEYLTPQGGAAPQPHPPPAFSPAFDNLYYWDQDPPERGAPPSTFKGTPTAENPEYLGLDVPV
Description: Test 10: BaF3 (HER2-P780insGSP) Cell Proliferation Test
BaF3 (HER2-P780insGSP) was cultured in RPMI1640 medium containing 10% fetal bovine serum and 2 mM glutamine. The cells were grown at 37° C. in a humidified incubator with 5% CO2.
as §1

BaF3 (EGFR-D770insNPG) = BaF3 (EGFR-D770insNPG) (Homo sapiens, UniProt P00533, INS772GNP, cells depend on it); experiment: Test 6: BaF3 (EGFR-D770insNPG) cell proliferation test; conditions: 72 hours, Cell Titer-Glo, read-out: Test 6 - IC50
Description: Test 6: BaF3 (EGFR-D770insNPG) Cell Proliferation Test
BaF3 (EGFR-D770insNPG) was cultured in RPMI1640 medium containing 10% fetal bovine serum and 2 mM glutamine. The cells were grown at 37° C. in a humidified incubator with 5% CO2.
as §1

[1] = system: NCI-H1975 (EGFR L858R/T790M double mutant); experiment: Test 1: EGFR L858R/T790M (EGFR double mutant) cell proliferation test; conditions: Homo sapiens; NCI-H1975 cells, 72 hours, Cell Titer-Glo
Description: Test 1: EGFR L858R/T790M (EGFR Double Mutant) Cell Proliferation Test
The human lung cell line NCI-H1975 (EGFR L858R/T790M double mutant) was obtained from the American Type Culture Collection. NCI-H1975 cells were cultured in RPMI1640 medium containing 10% fetal bovine serum and 2 mM glutamine. The cells were grown at 37° C. in a humidified incubator with 5% CO2.
as §1, with “(8,000” for “(3,000”

BaF3 (EGFR-L861Q) = BaF3 (EGFR-L861Q) (Homo sapiens, UniProt P00533, L861Q, cells depend on it); experiment: Test 8: BaF3 (EGFR-L861Q) cell proliferation test; conditions: 72 hours, Cell Titer-Glo, read-out: Test 8 - IC50
Description: Test 8: BaF3 (EGFR-L8610) Cell Proliferation Test
BaF3 (EGFR-L861Q) was cultured in RPMI1640 medium containing 10% fetal bovine serum and 2 mM glutamine. The cells were grown at 37° C. in a humidified incubator with 5% CO2.
as §1

BaF3 (EGFR/D770insSVD) = molecular target: T2, BaF3 (EGFR/D770insSVD) (Homo sapiens, UniProt P00533, cells depend on it, form not given); experiment: Test 13: EGFR exon 20 inserted D770insSVD cell proliferation test; conditions: A763insFQEA, V769insASV, D770insSVD (tests 13-15), in words
T2 construct: other: A763insFQEA, V769ins
Description: Test 13: EGFR Exon 20 Inserted D770insSVD Cell Proliferation Test
as §1

## C=CC(=O)Nc1cc(Nc2nccc(-c3cn(C)c4ccccc34)n2)c(OCC(F)(F)F)nc1N(C)CCN(C)C.CS(=O)(=O)O [Compound 31]
BaF3 (EGFR/S768I)
  activity compared with Osimertinib (AZD9291) against EGFR S768I and EGFR L861Q mutations: superior activity over Osimertinib (AZD9291)

## C=CC(=O)Nc1cc(Nc2nccc(-c3cn(C)c4ccccc34)n2)c(OCC(F)(F)F)nc1N(C)CCN(C)C.Cl [Compound 32]
BaF3 (EGFR/S768I)
  activity compared with Osimertinib (AZD9291) against EGFR S768I and EGFR L861Q mutations: superior activity over Osimertinib (AZD9291)

## C=CC(=O)Nc1cc(Nc2ncnc(-c3cn(C)c4ccc(OC)cc34)n2)c(OC)cc1N(C)CCN(C)C [Example 8, N-(2-((2-(dimethylamino)ethyl)(methyl)amino)-4-methoxy-5-((4-(5-methoxy-1-methyl-1H-indol-3-yl)-1,3,5-triazin-2-yl)amino)phenyl)acrylamide]
BaF3 (EGFR-N771insH)
  GI50: 18.2 nM
BaF3 (HER2-G776insVC)
  GI50: 2.73 nM
BaF3 (EGFR-A763insFQEA)
  GI50: 16.6 nM
BaF3 (EGFR-D770insSVD)
  GI50: 30 nM
BaF3 (EGFR-S768I)
  GI50: 7.82 nM
BaF3 (EGFR-V769insASV)
  GI50: 57.6 nM
BaF3 (HER2-A775insYVMA)
  GI50: 21.8 nM
BaF3 (HER2-P780insGSP)
  GI50: 11.6 nM
BaF3 (EGFR-D770insNPG)
  GI50: 22.8 nM
[1]
  IC50: 39.6 nM
BaF3 (EGFR-L861Q)
  GI50: 5.82 nM

## C=CC(=O)Nc1cc(Nc2ncnc(-c3cn(C)c4ccc(Cl)cc34)n2)c(OC)cc1N(C)CCN(C)C [Example 9]
BaF3 (EGFR-N771insH)
  GI50: 15.3 nM
BaF3 (HER2-G776insVC)
  GI50: 1.8 nM
BaF3 (EGFR-A763insFQEA)
  GI50: 14.3 nM
BaF3 (EGFR-D770insSVD)
  GI50: 48.7 nM
BaF3 (EGFR-S768I)
  GI50: 9.17 nM
BaF3 (EGFR-V769insASV)
  GI50: 45.5 nM
BaF3 (HER2-A775insYVMA)
  GI50: 13.9 nM
BaF3 (HER2-P780insGSP)
  GI50: 7.59 nM
BaF3 (EGFR-D770insNPG)
  GI50: 12.8 nM
[1]
  IC50: 15.3 nM
BaF3 (EGFR-L861Q)
  GI50: 5.01 nM

## C=CC(=O)Nc1cc(Nc2ncnc(-c3cn(C)c4cc(Cl)c(OC)cc34)n2)c(OC)cc1N(C)CCN(C)C [Example 10]
BaF3 (EGFR-N771insH)
  GI50: 146 nM
BaF3 (HER2-G776insVC)
  GI50: 9.56 nM
BaF3 (EGFR-A763insFQEA)
  GI50: 183 nM
BaF3 (EGFR-D770insSVD)
  GI50: 566 nM
BaF3 (EGFR-S768I)
  GI50: 44.5 nM
BaF3 (EGFR-V769insASV)
  GI50: 466 nM
BaF3 (HER2-A775insYVMA)
  GI50: 45.2 nM
BaF3 (HER2-P780insGSP)
  GI50: 32.6 nM
BaF3 (EGFR-D770insNPG)
  GI50: 181 nM
[1]
  IC50: 183 nM
BaF3 (EGFR/D770insSVD)
  cell activity compared with Osimertinib (AZD9291) against EGFR exon 20 insertion mutations: significant superior cell activity over Osimertinib (AZD9291)
BaF3 (EGFR-L861Q)
  GI50: 36.1 nM

## C=CC(=O)Nc1cc(Nc2ncnc(Oc3ccc(Cl)c(OC)c3)n2)c(OC)cc1N(C)CCN(C)C [Example 12]
BaF3 (EGFR-N771insH)
  GI50: 82.5 nM
BaF3 (HER2-G776insVC)
  GI50: 11.4 nM
BaF3 (EGFR-A763insFQEA)
  GI50: 57.3 nM
BaF3 (EGFR-D770insSVD)
  GI50: 183 nM
BaF3 (EGFR-S768I)
  GI50: 29.4 nM
BaF3 (EGFR-V769insASV)
  GI50: 121 nM
BaF3 (HER2-A775insYVMA)
  GI50: 98.2 nM
BaF3 (HER2-P780insGSP)
  GI50: 47.8 nM
BaF3 (EGFR-D770insNPG)
  GI50: 75.3 nM
[1]
  IC50: 66.3 nM
BaF3 (EGFR-L861Q)
  GI50: 17.2 nM

## C=CC(=O)Nc1cc(Nc2ncnc(Oc3ccc(Cl)c(OC)c3)n2)c(OC(F)F)cc1N(C)CCN(C)C [Example 13]
BaF3 (EGFR-N771insH)
  GI50: 35.6 nM
BaF3 (HER2-G776insVC)
  GI50: 8.36 nM
BaF3 (EGFR-A763insFQEA)
  GI50: 43.1 nM
BaF3 (EGFR-D770insSVD)
  GI50: 88.7 nM
BaF3 (EGFR-S768I)
  GI50: 13.6 nM
BaF3 (EGFR-V769insASV)
  GI50: 88.6 nM
BaF3 (HER2-A775insYVMA)
  GI50: 85.2 nM
BaF3 (HER2-P780insGSP)
  GI50: 29.6 nM
BaF3 (EGFR-D770insNPG)
  GI50: 40.9 nM
[1]
  IC50: 42.1 nM
BaF3 (EGFR-L861Q)
  GI50: 10.8 nM
